In this test the target is T1, hTAS1R1 D192F/rTAS1R3 (UniProt Q7RTX1+Q923K1, D192F).
T1 construct: The cDNA coding region of rTAS1R3 was synthesized with optimized-codon usage for human expression; expressed in transfected cells; host or cells: HEK293T/17
T1 sequence (Q7RTX1 21-841 D192F): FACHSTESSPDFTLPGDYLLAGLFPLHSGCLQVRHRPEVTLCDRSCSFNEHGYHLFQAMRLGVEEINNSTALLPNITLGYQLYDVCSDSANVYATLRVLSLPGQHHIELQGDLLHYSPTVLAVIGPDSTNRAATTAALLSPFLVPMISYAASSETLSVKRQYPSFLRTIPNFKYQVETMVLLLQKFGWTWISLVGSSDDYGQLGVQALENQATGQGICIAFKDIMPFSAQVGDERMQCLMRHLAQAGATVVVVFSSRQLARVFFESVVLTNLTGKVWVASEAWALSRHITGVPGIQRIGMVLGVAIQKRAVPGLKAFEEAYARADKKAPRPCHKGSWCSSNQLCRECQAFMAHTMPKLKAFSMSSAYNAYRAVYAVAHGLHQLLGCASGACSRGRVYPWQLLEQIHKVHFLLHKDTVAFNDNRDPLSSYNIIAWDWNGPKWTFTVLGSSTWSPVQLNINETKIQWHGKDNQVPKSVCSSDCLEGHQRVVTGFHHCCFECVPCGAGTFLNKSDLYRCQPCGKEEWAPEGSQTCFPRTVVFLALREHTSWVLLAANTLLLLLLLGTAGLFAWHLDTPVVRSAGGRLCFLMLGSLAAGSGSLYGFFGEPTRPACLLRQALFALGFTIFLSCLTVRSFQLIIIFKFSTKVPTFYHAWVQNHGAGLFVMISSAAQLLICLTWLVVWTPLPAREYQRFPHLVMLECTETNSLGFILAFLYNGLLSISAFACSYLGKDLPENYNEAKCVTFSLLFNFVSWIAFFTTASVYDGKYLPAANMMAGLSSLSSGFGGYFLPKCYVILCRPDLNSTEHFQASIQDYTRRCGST
T1 sequence (Q923K1 21-858): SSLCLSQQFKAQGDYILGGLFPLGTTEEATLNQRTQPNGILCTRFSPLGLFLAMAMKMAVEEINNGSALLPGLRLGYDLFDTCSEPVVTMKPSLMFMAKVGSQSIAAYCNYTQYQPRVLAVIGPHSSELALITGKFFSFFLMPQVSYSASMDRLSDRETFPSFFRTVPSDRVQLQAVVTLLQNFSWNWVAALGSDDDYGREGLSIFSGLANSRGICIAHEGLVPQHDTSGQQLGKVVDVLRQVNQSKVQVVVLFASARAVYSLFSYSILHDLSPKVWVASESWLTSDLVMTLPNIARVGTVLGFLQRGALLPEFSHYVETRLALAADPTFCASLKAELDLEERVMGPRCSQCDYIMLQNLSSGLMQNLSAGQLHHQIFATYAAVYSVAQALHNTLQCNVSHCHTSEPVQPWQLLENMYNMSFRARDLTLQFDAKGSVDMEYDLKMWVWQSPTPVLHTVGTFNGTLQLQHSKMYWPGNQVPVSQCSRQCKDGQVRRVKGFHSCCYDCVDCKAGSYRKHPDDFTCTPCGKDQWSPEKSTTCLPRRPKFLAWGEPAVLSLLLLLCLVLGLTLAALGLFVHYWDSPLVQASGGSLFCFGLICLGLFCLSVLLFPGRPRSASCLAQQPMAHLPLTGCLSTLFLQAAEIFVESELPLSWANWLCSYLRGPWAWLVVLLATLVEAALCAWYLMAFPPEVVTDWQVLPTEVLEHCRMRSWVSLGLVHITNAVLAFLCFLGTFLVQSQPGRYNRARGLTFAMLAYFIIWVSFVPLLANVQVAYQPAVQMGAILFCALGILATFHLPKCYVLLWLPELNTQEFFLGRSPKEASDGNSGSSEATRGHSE
The test can be described thus: Calcium assay, hTAS1R1 mutant co-expressed with rTAS1R3. In kind it is cell-based, human, rat. The note with it: for response to the agonist alone, vs WT: D192F. An excerpt: Chimeric Gα proteins, such as Gα16Gust44, Gα16Gi3 or Gα15i2, are widely used in the functional expression of TAS1R receptors ([Backes et al., 2015]; [Suess et al., 2015]; [Toda et al., 2021], [Toda et al., 2013], [Toda et al., 2018]; [Zhang et al., 2008]). Chimeric Gα15i2 (([Toda et al., 2013]), Supplementary data) was generated by replacing the last five residues of the C-terminal tail of rat Gα15i2 (EINLL) (UniProt number G3V6N8; https://www.uniprot.org/uniprot/) with the counterpart sequence from human GNAI2 (DCGLF) (UniProt number P04899-1) and cloning into the pcDNA3.1/Hygro vector (Invitrogen, Thermo Fisher Scientific, Illkirch, France) between the HindIII and NotI restriction sites, resulting in the plasmid pcDNA3.1-Gα15i2. Chimeric Gα16Gust44 construct have already been reported ([Raliou et al., 2011]). Briefly, Gα16Gust44 was generated by replacing the C-terminal of Gα16 with the C-terminal 44 residues of gustducin. As previously described, hTAS1R1 was amplified from human fungiform papillae cDNA and cloned and inserted into pcDNA3 (Invitrogen), generating pcDNA3-TAS1R1-WT (wild-type) ([Raliou et al., 2011]). […] The cDNA coding region of rTAS1R3 was synthesized with optimized-codon usage for human expression (Genewiz) and was cloned and inserted into the mammalian pcDNA4/myc-HisA (Invitrogen) expression vector between the EcoRI and NotI restriction sites, resulting in the plasmid pcDNA4-rTAS1R3. […] The sequence integrity of all the plasmid constructs was verified via automated DNA sequencing (Genewiz).
The hTAS1R1 mutants were co-expressed with the rTAS1R3 subunit in HEK293 cells. […] As a control, the functionality of the mutated receptors was checked after stimulation with S807 (Fig. S8), which interacts with TAS1R1-TMD ([Zhang et al., 2008]).

Entries after “also recorded” stand apart in the source; their conditions may differ.

With `N[C@@H](CCC(=O)N[C@@H](CS)C(=O)NCC(=O)O)C(=O)O` [GSH, γ-L-glutamyl-L-cysteinyl-glycine], the concentration giving a half-maximal response (EC50) – broadly, the midpoint of the concentration-response curve – was > 30 mM and the “response to the agonist alone, vs WT” value was “fully abolished; also recorded: completely abolished”.

As for `CCCC(CCC)NC(=O)c1ccc2c(c1)OCO2` [S807, N-(heptan-4-yl)benzo[d][1,3]dioxole-5-carboxamide, reference compound], the “response to the agonist alone, vs WT” value is reported as “increased”.

As to `N[C@@H](CCC(=O)O)C(=O)O` [L-Glu, L-glutamic acid, reference compound], the “response to the agonist alone, vs WT” value is listed as “completely suppressed; also recorded: completely abolished”.

The values are drawn from article PMC12615753, “Glutathione as a taste modulator: molecular mechanisms of interaction with umami and sweet taste receptors” (Food Chemistry: Molecular Sciences, 2025).
